Measurements as given in patent publication US20220401440A1, “DOSING REGIMENS FOR A PROTEIN KINASE C INHIBITOR” (IDEAYA BIOSCIENCES, INC., priority 2019, published 2022).
“And” between values parts separate entries of the source, which are not always exact repeats. Identical values can stand only once. Like-named read-outs stand apart in the source and are kept apart here.

Assay: Phase 1/2 study: plasma pharmacokinetics of Compound (I) in patients (LC-MS/MS, non-compartmental analysis)
Assay type: in vivo, human
Experimental: The following example presents a phase 1/2 study of Compound (I) in patients with solid tumors harboring GNAQ/11 mutations or PRKC fusions.
Patients with MUM were sequentially enrolled into Cohort 1 or Cohort 2. Enrollment into Cohort 2 was not initiated until enrollment into Cohort 1 was completed and the dose considered safe. • a. Cohort 1. 6 patients were sequentially enrolled and received 300 mg twice a day (BID), daily, for 28-day treatment cycles. • b. Cohort 2. 6 patients were sequentially enrolled and received 400 mg BID, preceded by an initial 7-day 200 mg BID run-in period, for 28-day treatment cycles. All patients continue to receive treatment with Compound (I) unless the subject experiences one or more of the following: • Adverse event • Lost to follow-up • Physician decision • Progressive disease • Study termination by the Sponsor • Patient/guardian decision • Protocol deviation • Non-compliance with protocol • Death • Pregnancy NUMBER OF SUBJECTS: 12 patients
The following example presents pharmacokinetic results from the study as described in Example 1.
Blood samples were collected on Cycle 1 Day 1 and Day 15 from patients who were administered 300 mg BID of Compound (I), and on Cycle 1 Day 8 and Day 22 from patients who were administered 200 mg BID for 7 days followed by 400 mg BID of Compound (I) for the remainder of the treatment cycle. The plasma samples were processed by protein precipitation (see Ahuja S and Dong M. W, Handbook of Pharmaceutical Analysis by HPLC, Elsevier Inc., Chapter 17, page 433, 2005) and analyzed using an LC-MS/MS method; Quantification was achieved using Compound (I) peak area to internal standard (3-amino-N-(3-(4-amino-4-(methyl-d3)piperidin-1-yl)pyridin-2-yl)-6-(3-(trifluoromethyl)pyridin-2-yl)pyrazine-2-carboxamide) peak area ratios. Concentrations of the calibration curve standards, quality control samples, and patient samples were determined by the method of 1/x^2 weighted least squares linear regression.
The Pharmacokinetic parameters were calculated using Phoenix WinNonlin software (non-compartmental analysis).

[1] = individual patients, 300 mg BID
[2] = individual patients, 300 mg BID, C1 Day 1
[3] = individual patients, 300 mg BID, C1 Day 15
[4] = individual patients, 400 mg BID with 200 mg run-in
[5] = individual patients, 400 mg BID with 200 mg run-in, C1 Day 8
[6] = individual patients, 400 mg BID with 200 mg run-in, C1 Day 22

CC1(N)CCN(c2cccnc2NC(=O)c2nc(-c3ncccc3C(F)(F)F)cnc2N)CC1 [Compound (I), 3-amino-N-(3-(4-amino-4-methylpiperidin-1-yl)pyridin-2-yl)-6-(3-(trifluoromethyl)pyridin-2-yl)pyrazine-2-carboxamide]
Free AUC0-12 (mean free plasma) (400 mg BID with 200 mg run-in): 396 ± 222 ng·h/mL | Cmin (400 mg BID with 200 mg run-in, Cycle 1 Day 22, mean ± SD, n = 24): 1120 ± 806 ng/mL | Race (400 mg BID with 200 mg run-in, mean ± SD, n = 24): 0.97 ± 0.29 | mean exposure on C1D8 (200 mg BID 7 days then 400 mg BID) compared to C1D1 of 300 mg BID (human, in vivo): lower mean exposure | mean free plasma AUC0-12, higher at 400 mg BID with 200 mg run-in than at 300 mg BID (human, in vivo): about 44% | AUC(0-t) (human, plasma, oral, 300 mg, 300 mg BID, Cycle 1 Day 1, mean ± SD, n = 12, read-out: AUC0-12): 26200 ± 11100 ng·h/mL | Cmax (human, plasma, oral, 300 mg, 300 mg BID, Cycle 1 Day 1, mean ± SD, n = 12, read-out: Cmax): 4600 ± 2300 ng/mL | AUC(0-t) (human, plasma, oral, 300 mg, 300 mg BID, Cycle 1 Day 15, mean ± SD, n = 12, read-out: AUC0-12): 16800 ± 5380 ng·h/mL | Cmax (human, plasma, oral, 300 mg, 300 mg BID, Cycle 1 Day 15, mean ± SD, n = 12, read-out: Cmax): 2860 ± 690 ng/mL | AUC(0-t) (human, plasma, oral, 300 mg, individual patient 10001-00022, 300 mg BID, C1 Day 1 (footnote a: AUC0-8), read-out: AUC0-8): 35900 ng·h/mL | AUC(0-t) (human, plasma, oral, 400 mg BID, 400 mg BID with 200 mg run-in, Cycle 1 Day 8, mean ± SD, n = 24, read-out: AUC0-12): 24400 ± 12100 ng·h/mL | Cmax (human, plasma, oral, 400 mg BID, 400 mg BID with 200 mg run-in, Cycle 1 Day 8, mean ± SD, n = 24, read-out: Cmax): 3930 ± 1880 ng/mL | AUC(0-t) (human, plasma, oral, 400 mg BID, 400 mg BID with 200 mg run-in, Cycle 1 Day 22, mean ± SD, n = 24, read-out: AUC0-12): 21500 ± 10800 ng·h/mL | Cmax (human, plasma, oral, 400 mg BID, 400 mg BID with 200 mg run-in, Cycle 1 Day 22, mean ± SD, n = 24, read-out: Cmax): 3580 ± 1390 ng/mL | AUC ratio D15/D1 [1]: 0.83 and 0.87 and 1.53 and 0.67 and 1.1 and 0.66 (2×) and 0.44 and 0.51 and 0.41 and 0.62 and 1.22 and 0.61 | Cmin on C1D15 [1]: 645 ng/mL and 626 ng/mL and 175 ng/mL and 792 ng/mL and 1075 ng/mL and 1212 ng/mL and 1088 ng/mL and 798 ng/mL and 322 ng/mL and 1337 ng/mL and 1549 ng/mL and 715 ng/mL and 699 ng/mL | AUC0-12 [2]: 22974 ng·h/mL and 17983 ng·h/mL and 3597 ng·h/mL and 22480 ng·h/mL and 19439 ng·h/mL and 43190 ng·h/mL and 35321 ng·h/mL and 26969 ng·h/mL and 39949 ng·h/mL and 233274 ng·h/mL and 26345 ng·h/mL and 19768 ng·h/mL | Cmax [2]: 3159 ng/mL and 2980 ng/mL and 607 ng/mL and 3147 ng/mL and 4367 ng/mL and 8940 ng/mL and 7009 ng/mL and 5386 ng/mL and 6252 ng/mL and 5549 ng/mL and 3866 ng/mL and 5523 ng/mL and 2256 ng/mL | Tmax [2]: 4 h and 2 h and 1 h and 0.5 h | AUC0-12 [3]: 19049 ng·h/mL and 15640 ng·h/mL and 5511 ng·h/mL and 15071 ng·h/mL and 21194 ng·h/mL and 23600 ng·h/mL and 19185 ng·h/mL and 17909 ng·h/mL and 10949 ng·h/mL and 24582 ng·h/mL and 28493 ng·h/mL and 16155 ng·h/mL and 13083 ng·h/mL | Cmax [3]: 3965 ng/mL and 2149 ng/mL and 1392 ng/mL and 3079 ng/mL and 2984 ng/mL and 3442 ng/mL and 2782 ng/mL and 2574 ng/mL and 2969 ng/mL and 3618 ng/mL and 4203 ng/mL and 2348 ng/mL and 2971 ng/mL | Tmax [3]: 0.5 h and 1 h and 2 h | AUC ratio D22/D8 [4]: 1.3 (3×) and 1.1 (2×) and 0.84 and 0.66 and 0.75 and 1.0 (3×) and 0.85 and 0.95 and 0.59 and 0.88 and 1.5 and 0.42 and 1.2 and 0.64 and 0.70 and 1.4 | Cmin on C1D22 [4]: 1019 ng/mL and 969 ng/mL and 931 ng/mL and 497 ng/mL and 533 ng/mL and 674 ng/mL and 916 ng/mL and 777 ng/mL and 179 ng/mL and 1631 ng/mL and 334 ng/mL and 1110 ng/mL and 264 ng/mL and 3140 ng/mL and 1082 ng/mL and 1887 ng/mL and 478 ng/mL and 1912 ng/mL and 1592 ng/mL and 2909 ng/mL and 677 ng/mL | AUC0-12 [5]: 17779 ng·h/mL and 19720 ng·h/mL and 22367 ng·h/mL and 23416 ng·h/mL and 16365 ng·h/mL and 28796 ng·h/mL and 13072 ng·h/mL and 56156 ng·h/mL and 22089 ng·h/mL and 23178 ng·h/mL and 18745 ng·h/mL and 6311 ng·h/mL and 38119 ng·h/mL and 13309 ng·h/mL and 22361 ng·h/mL and 10348 ng·h/mL and 32689 ng·h/mL and 48672 ng·h/mL and 23856 ng·h/mL and 17650 ng·h/mL and 43163 ng·h/mL and 23378 ng·h/mL and 30601 ng·h/mL and 13604 ng·h/mL | Cmax [5]: 2068 ng/mL and 2948 ng/mL and 2077 ng/mL and 7600 ng/mL and 2121 ng/mL and 2580 ng/mL and 1949 ng/mL and 7450 ng/mL and 3838 ng/mL and 6560 ng/mL and 4478 ng/mL and 1922 ng/mL and 6872 ng/mL and 4037 ng/mL and 2949 ng/mL and 2603 ng/mL and 3474 ng/mL and 7043 ng/mL and 2520 ng/mL and 2531 ng/mL and 4952 ng/mL and 4452 ng/mL and 4329 ng/mL and 3053 ng/mL | Tmax [5]: 2 h and 1 h and 6 h and 0.5 h and 4 h | AUC0-12 [6]: 22282 ng·h/mL and 21010 ng·h/mL and 18847 ng·h/mL and 15424 ng·h/mL and 12278 ng·h/mL and 13221 ng·h/mL and 18705 ng·h/mL and 20068 ng·h/mL and 6604 ng·h/mL and 36219 ng·h/mL and 7788 ng·h/mL and 19634 ng·h/mL and 10656 ng·h/mL and 48381 ng·h/mL and 20635 ng·h/mL and 28583 ng·h/mL and 11327 ng·h/mL and 30027 ng·h/mL and 32888 ng·h/mL and 38889 ng·h/mL and 18178 ng·h/mL | Cmax [6]: 2556 ng/mL and 2756 ng/mL and 1709 ng/mL and 5026 ng/mL and 2562 ng/mL and 1911 ng/mL and 2853 ng/mL and 2578 ng/mL and 5948 ng/mL and 2203 ng/mL and 2403 ng/mL and 1992 ng/mL and 5663 ng/mL and 5314 ng/mL and 3276 ng/mL and 4296 ng/mL and 5657 ng/mL and 5617 ng/mL and 3676 ng/mL and 3890 ng/mL | Tmax [6]: 2 h and 1 h and 6 h and 0.5 h and 4 h | mean Cmin at steady state, higher at 400 mg BID (with 200 mg run-in) than at 300 mg BID (steady state): ~40% | mean steady state exposure (200 mg BID 7 days then 400 mg BID) vs 300 mg BID (steady state): higher mean steady state exposure
